1 compound from BindingDB's records for doi:10.1074/jbc.M113.479303 (Wageningen University, 2013) can be followed below.

Common to all, as to assay: Substrate Binding Assay
Settings in all cases: pH 8

For experiment [1], the target named is T1, Probable salicylate monooxygenase (Rhodococcus jostii (strain RHA1), UniProt Q0SFK6).
T1 sequence (Q0SFK6 whole entry): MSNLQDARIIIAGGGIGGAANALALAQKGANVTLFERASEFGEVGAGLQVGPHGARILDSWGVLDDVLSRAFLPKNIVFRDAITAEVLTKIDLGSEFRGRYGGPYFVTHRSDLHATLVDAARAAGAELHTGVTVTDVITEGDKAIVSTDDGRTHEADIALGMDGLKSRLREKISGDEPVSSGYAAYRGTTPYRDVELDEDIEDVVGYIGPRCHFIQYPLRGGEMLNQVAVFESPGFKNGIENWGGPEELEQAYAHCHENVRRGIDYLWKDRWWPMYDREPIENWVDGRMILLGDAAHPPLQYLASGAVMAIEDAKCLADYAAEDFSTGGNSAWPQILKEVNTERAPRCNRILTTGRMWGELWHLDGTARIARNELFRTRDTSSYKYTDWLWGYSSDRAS
On the procedure:
(§1) The interaction of 3HB6H (25 uM) with substrate analogs was studied in 50 mM Tris-SO4 (pH 8.0). Dissociation constants (Kd) of enzyme-substrate complexes were determined from flavin absorption difference spectra essentially as described elsewhere [Montersino et al., Biochim. Biophys. Acta, 1824:433-442].

In experiment [2] the target is Probable salicylate monooxygenase [H213A] (Rhodococcus jostii (strain RHA1), UniProt Q0SFK6, H213A). On the procedure: as §1
Experiment [3] deals with Probable salicylate monooxygenase [Y105F] (Rhodococcus jostii (strain RHA1), UniProt Q0SFK6, Y105F). On the procedure:
as §1

Broadly, the Kd is the equilibrium constant for the complex coming apart. Read a high Kd as a looser complex.

Molecules are shown by their SMILES.

For the compound `O=C(O)c1cccc(O)c1`, the Kd was 48 µM in experiment [1], 61 µM in experiment [2] and 644 µM in experiment [3].
